The results in this text go back to patent US20100168102A9, “Amide Derivatives as Kinase Inhibitors” (Devgen NV, priority 2005, published 2010).

One experiment has as its target T1, PKC epsilon (Homo sapiens, UniProt Q02156).
T1 construct: purchased Invitrogen P2282
T1 sequence (Q02156 1-737): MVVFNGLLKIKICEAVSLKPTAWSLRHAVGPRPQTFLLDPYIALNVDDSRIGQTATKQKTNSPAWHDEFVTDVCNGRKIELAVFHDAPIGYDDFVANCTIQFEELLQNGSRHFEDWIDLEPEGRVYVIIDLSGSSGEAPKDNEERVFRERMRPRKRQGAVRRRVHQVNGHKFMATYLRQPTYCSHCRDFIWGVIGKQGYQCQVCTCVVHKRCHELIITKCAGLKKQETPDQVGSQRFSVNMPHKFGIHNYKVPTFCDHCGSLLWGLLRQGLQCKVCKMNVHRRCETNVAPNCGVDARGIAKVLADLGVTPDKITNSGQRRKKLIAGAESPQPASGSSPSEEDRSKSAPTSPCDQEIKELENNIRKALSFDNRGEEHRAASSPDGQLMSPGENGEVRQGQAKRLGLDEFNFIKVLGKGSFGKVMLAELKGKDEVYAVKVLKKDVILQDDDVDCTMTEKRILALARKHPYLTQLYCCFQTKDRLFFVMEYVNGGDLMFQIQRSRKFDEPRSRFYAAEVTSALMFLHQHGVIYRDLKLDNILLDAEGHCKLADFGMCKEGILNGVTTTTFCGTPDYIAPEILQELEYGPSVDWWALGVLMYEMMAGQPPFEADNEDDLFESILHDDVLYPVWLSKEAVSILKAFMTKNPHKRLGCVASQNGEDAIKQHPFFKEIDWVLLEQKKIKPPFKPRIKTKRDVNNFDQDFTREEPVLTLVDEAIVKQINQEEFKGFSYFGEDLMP
The experiment in a line: Biochemical assay for PKC epsilon (fluorescence polarization, Protein Kinase C Assay Kit, Red). The settings on record: read-out: IC50 μM PKCε. In outline:
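PKC epsilon at 10 ng/ml final was preincubated 30 min at room temperature with compound in HEPES pH 7.4 with DTT and Triton X-100. ATP/protein substrate was then added in buffer with MgCl2 and CaCl2 for 80 min. The reaction was stopped with EDTA, phosphorylation was detected by fluorescence polarization with rhodamine tracer and anti-phosphoserine antibody, and IC50 values came from curve fits.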
For orientation: In fluorescence polarisation assays a small probe gives low polarisation when free and higher when bound to something large.

A further experiment has as its target T2, human ROCKα/ROCKII mix (Homo sapiens, UniProt O75116).
T2 construct: purchased Upstate Biotechnology 14-451
Description: Biochemical assay for ROCK (fluorescence polarization, ROCK IMAP Kit).

[1] abbreviates: compounds of Formula XIV, Table 3.
The mark [2] stands for this setting: Table 2, compounds of Formula XIII.

Structures can show the parent of a compound that is named as a salt. Where two headings read alike, the source gives them in different places.

As a reminder, the IC50 is the concentration at which inhibition is half-maximal.

T2 sequence (O75116 11-552 limits assumed): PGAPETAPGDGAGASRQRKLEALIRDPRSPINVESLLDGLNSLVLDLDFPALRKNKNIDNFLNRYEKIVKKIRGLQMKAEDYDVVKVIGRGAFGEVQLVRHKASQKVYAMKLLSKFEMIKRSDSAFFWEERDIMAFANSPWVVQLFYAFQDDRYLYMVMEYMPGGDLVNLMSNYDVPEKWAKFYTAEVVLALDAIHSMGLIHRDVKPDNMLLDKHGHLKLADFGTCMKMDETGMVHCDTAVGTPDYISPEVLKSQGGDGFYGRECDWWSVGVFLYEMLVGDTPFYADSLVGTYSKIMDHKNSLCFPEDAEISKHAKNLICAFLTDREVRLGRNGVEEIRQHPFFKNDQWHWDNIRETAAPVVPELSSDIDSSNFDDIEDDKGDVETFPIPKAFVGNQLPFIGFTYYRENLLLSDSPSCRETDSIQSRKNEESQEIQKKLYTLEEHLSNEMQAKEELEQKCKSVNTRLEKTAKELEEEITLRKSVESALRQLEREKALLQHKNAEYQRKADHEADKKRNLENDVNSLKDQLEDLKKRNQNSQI

For the compound `COc1ccc(NC(=S)NCC(N)c2ccc(C(=O)Nc3ccncc3)cc2)cc1` (centres unmarked) [Compound 14, 4-{1-amino-2-[3-(4-methoxy-phenyl)-thioureido]-ethyl}-N-pyridin-4-yl-benzamide], the IC50 at PKC epsilon and against human ROCKα/ROCKII mix was 0.5 to 5 µM each time.

Consider `CC(C)(C(=S)NCC(N)c1ccc(C(=O)Nc2ccncc2)cc1)c1ccc(F)cc1` (centres unmarked) [Compound 419, 4-{1-Amino-2-[2-(4-fluoro-phenyl)-2-methyl-thiopropionylamino]-ethyl}-N pyridin-4-yl-benzamide dihydrochloric acid salt], for which the IC50 on PKC epsilon was less than 0.05 µM; against human ROCKα/ROCKII mix, 0.05 to 0.5 µM.

Consider “4-{1-Amino-2-[methyl-(2- naphthalen-1-yl-acetyl)- amino]-ethyl}- N-pyridin-4-yl-benzamide [Compound 435]”, for which the IC50 on PKC epsilon lay in the range of 5 to 50 µM; on human ROCKα/ROCKII mix, 0.5 to 5 µM.

On to `CN(CC(N)c1ccc(C(=O)Nc2ccncc2)cc1)C(=O)C1(c2ccc(Cl)cc2F)CC1` (centres unmarked) [Compound 504, 4-(1-Amino-2-{[1-(4-chloro-2-fluoro-phenyl)-cyclopropanecarbonyl]-methyl-amino}-ethyl)-N-pyridin-4-yl-benzamide], for which the IC50 on PKC epsilon and at human ROCKα/ROCKII mix was 0.5 to 5 µM each time.

For the compound “4-[1-Amino-2- (benzo[1,3]dioxol-5-yl- ethylcarbamoyl)-ethyl]-N- pyridin-4-yl-benzamide [Compound 296]”, the IC50 at PKC epsilon (setting [1]) fell in the range of 5 to 50 µM; against human ROCKα/ROCKII mix (setting [1]) it was 0.05 to 0.5 µM.

As for `NC(CC(=O)Nc1ccc(CO)cc1)c1ccc(C(=O)Nc2ccncc2)cc1` (centres unmarked) [Compound 320, 4-[1-Amino-2-(4-hydroxymethyl-phenyl-carbamoyl)-ethyl]-N-pyridin-4-yl-benzamide], the IC50 on PKC epsilon (setting [1]) lay in the range of 0.5 to 5 µM; at human ROCKα/ROCKII mix (setting [1]) it was 0.05 to 0.5 µM.

`NC(CNC(=O)c1cccc2ccccc12)c1ccc(C(=O)Nc2ccncc2)cc1` (centres unmarked) [Compound 71]: the IC50 on PKC epsilon (setting [2]) and against human ROCKα/ROCKII mix (setting [2]) was 0.5 to 5 µM throughout.

Turning to `CC(=NOC(C)(C)C)c1ccc(C(=O)NCC(N)c2ccc(C(=O)Nc3ccncc3)cc2)s1` (centres unmarked) [Compound 118, 5-(1-tert-Butoxyimino-ethyl)-thiophene-2-carboxylic acid {2-amino-2-[4-(pyridin-4-ylcarbamoyl)-phenyl]-ethyl}-amide], the IC50 at PKC epsilon (setting [2]) lay within 5 to 50 µM; on human ROCKα/ROCKII mix (setting [2]) it was 0.5 to 5 µM.

`COc1cc(CC(=O)N2CCCC2C(N)c2ccc(C(=O)Nc3ccncc3)cc2)cc(OC)c1OC` (centres unmarked) [Compound 532, 4-(Amino-{1-[2-(3,4,5-trimethoxy-phenyl)-acetyl]-pyrrolidin-2-yl}-methyl)-N-pyridin-4-yl-benzamide]: the concentration for half-maximal inhibition (IC50) at PKC epsilon lay within 5 to 50 µM; at human ROCKα/ROCKII mix it was 0.5 to 5 µM.

Regarding “4-[1-Amino-2-(4-thiophen-2- yl-benzylcarbamoyl)-ethyl]- N-pyridin-4-yl-benzamide [Compound 235]”, the concentration for half-maximal inhibition (IC50) was 5 to 50 µM at PKC epsilon (setting [1]) and 0.05 to 0.5 µM against human ROCKα/ROCKII mix (setting [1]).

For `CCNC(=S)NCC(N)c1ccc(C(=O)Nc2ccncc2)cc1` (centres unmarked) [Compound 1, 4-[1-amino-2-(3-ethyl-thioureido)-ethyl]-N-pyridin-4-yl-benzamide], the IC50 at PKC epsilon and at human ROCKα/ROCKII mix was 0.5 to 5 µM in each case.

For the compound `NC(c1ccc(C(=O)Nc2ccncc2)cc1)C1CCCN1C(=O)C1(c2ccc(Cl)c(Cl)c2)CC1` (centres unmarked) [Compound 594, 4-(Amino-{1-[1-(3,4-dichloro-phenyl)-cyclopropanecarbonyl]-pyrrolidin-2-yl}-methyl)-N-pyridin-4-yl-benzamide], the concentration for half-maximal inhibition (IC50) on PKC epsilon and at human ROCKα/ROCKII mix was 0.5 to 5 µM each time.

For the compound `NC(CNC(=O)c1ccc(=O)[nH]n1)c1ccc(C(=O)Nc2ccncc2)cc1` (centres unmarked) [Compound 109, 6-Oxo-1,6-dihydro-pyridazine-3-carboxylic acid {2-amino-2-[4-(pyridin-4-ylcarbamoyl)-phenyl]-ethyl}-amide], the IC50 on PKC epsilon (setting [2]) fell in the range of 5 to 50 µM; on human ROCKα/ROCKII mix (setting [2]) it was 0.5 to 5 µM.

For the compound `NC(CC(=O)NCc1cccc(Cl)c1)c1ccc(C(=O)Nc2ccncc2)cc1` (centres unmarked) [Compound 248, 4-[1-Amino-2-(3-chloro-benzylcarbamoyl)-ethyl]-N-pyridin-4-yl-benzamide], the IC50 on PKC epsilon (setting [1]) and against human ROCKα/ROCKII mix (setting [1]) was 0.05 to 0.5 µM throughout.

For the compound `COc1cccc(C(=O)NCC(N)c2ccc(C(=O)Nc3ccncc3)cc2)c1` (centres unmarked) [Compound 73, 4-[1-amino-2-(3-methoxy-benzoylamino)-ethyl]-N-pyridin-4-yl-benzamide], the IC50 at PKC epsilon (setting [2]) and on human ROCKα/ROCKII mix (setting [2]) was 0.5 to 5 µM in each case.

With `NC(c1ccc(C(=O)Nc2ccncc2)cc1)C1CCCN1C(=O)Cc1cccc(F)c1F` (centres unmarked) [Compound 578, 4-(Amino-{1-[2-(2,3-difluoro-phenyl)-acetyl]-pyrrolidin-2-yl}-methyl)-N-pyridin-4-yl-benzamide], the IC50 at PKC epsilon and against human ROCKα/ROCKII mix was 0.5 to 5 µM each time.

Consider “4-(1-amino-2-benzoylamino-ethyl)- N-pyridin-4-yl-benzamide [Compound 69]”, for which the figures for the IC50 on PKC epsilon (setting [2]) and against human ROCKα/ROCKII mix (setting [2]) were 0.5 to 5 µM and 0.05 to 0.5 µM, respectively.

In the case of `CCOc1ccccc1CCNC(=O)CC(N)c1ccc(C(=O)Nc2ccncc2)cc1` (centres unmarked) [Compound 288, 4-{1-Amino-2-[2-(2-ethoxy-phenyl)-ethylcarbamoyl]-ethyl}-N-pyridin-4-yl-benzamide], the figures for the IC50 at PKC epsilon (setting [1]) and on human ROCKα/ROCKII mix (setting [1]) were 0.5 to 5 µM and 0.05 to 0.5 µM, respectively.

For the compound “4-{1-Amino-2-[(pyridin-4- ylmethyl)-carbamoyl]-ethyl}- N-pyridin-4-yl-benzamide [Compound 276]”, the IC50 was 0.5 to 5 µM at PKC epsilon (setting [1]) and 0.05 to 0.5 µM against human ROCKα/ROCKII mix (setting [1]).

As to `NC(CNC(=O)Cc1c[nH]c2ccccc12)c1ccc(C(=O)Nc2ccncc2)cc1` (centres unmarked) [Compound 152, 4-[1-Amino-2-(2-1H-indol-3-yl-acetylamino)-ethyl]-N-pyridin-4-yl-benzamide], the IC50 at PKC epsilon (setting [2]) fell in the range of 0.5 to 5 µM; on human ROCKα/ROCKII mix (setting [2]) it was 0.05 to 0.5 µM.

Take “4-(1-Amino-2-{[2-(2-fluoro- phenyl)-acetyl]-methyl- amino}-ethyl)- N-pyridin-4-yl-benzamide [Compound 466]”: the 50% inhibitory concentration (IC50) at PKC epsilon was 5 to 50 µM; on human ROCKα/ROCKII mix, 0.5 to 5 µM.

On to `COCCC(=O)NCC(N)c1ccc(C(=O)Nc2ccncc2)cc1` (centres unmarked) [Compound 58, 4-[1-Amino-2-(3-methoxy-propionylamino)-ethyl]-N-pyridin-4-yl-benzamide], for which the IC50 lay in the range of 5 to 50 µM on PKC epsilon (setting [2]) and 0.5 to 5 µM on human ROCKα/ROCKII mix (setting [2]).

Take `NC(CNC(=O)c1cccc(S(=O)(=O)Nc2ccccc2)c1)c1ccc(C(=O)Nc2ccncc2)cc1` (centres unmarked) [Compound 99, 4-[1-amino-2-(3-phenylsulfamoyl-benzoylamino)-ethyl]-N-pyridin-4-yl-benzamide]: the IC50 at PKC epsilon (setting [2]) and against human ROCKα/ROCKII mix (setting [2]) was 0.5 to 5 µM in each case.

As to `N[C@@H](CC(=O)N[C@@H]1CCCc2ccccc21)c1ccc(C(=O)Nc2ccncc2)cc1` [Compound 374, 4-{(S)-1-Amino-2-[(R)-(1,2,3,4-tetrahydro-naphthalen-1-yl)carbamoyl]-ethyl}-N-pyridin-4-yl-benzamide dihydrochloric acid salt], the values for the half-inhibitory concentration (IC50) on PKC epsilon and at human ROCKα/ROCKII mix were 0.5 to 5 µM and 0.05 to 0.5 µM, respectively.

Regarding `COc1ccccc1CC(=O)N1CCCC1C(N)c1ccc(C(=O)Nc2ccncc2)cc1` (centres unmarked) [Compound 526, 4-(Amino-{1-[2-(2-methoxy-phenyl)-acetyl]-pyrrolidin-2-yl]-methyl}-N-pyridin-4-yl-benzamide], the IC50 lay within 5 to 50 µM on PKC epsilon and 0.5 to 5 µM against human ROCKα/ROCKII mix.
